Experimental data from publication PMC5550016, “Aminophosphinates against Helicobacter pylori ureolysis—Biochemical and whole-cell inhibition characteristics” (PLoS ONE, 2017).
Like-named read-outs stand apart in the source and are kept apart here.

Tests used:
[1] = target: T1, urease in intact E. coli (pGEM::ureOP) cells (Helicobacter pylori, UniProt B5Z674); assay: Urease inhibition in whole cells of E. coli + pGEM::ureOP; type: cell-based; conditions: IC50 exceeding 2 mM considered not active
T1 construct: plasmid pGEM::ureOP, which encodes the entire urease gene cluster, was used to produce recombinant H. pylori urease; expressed in transfected cells; host or cells: E. coli Rosetta2 (DE3) transformed with pGEM::ureOP
Method: The expression strain E. coli + pGEM::ureOP was cultured in 150 mL of LB broth (Biocorp, Poland) with 100 μg/mL ampicillin (Polfa, Tarchomin, Poland) at 37°C and induced with IPTG (0.75 mM) and Ni^2+ (0.75 mM) during the exponential growth phase, which was determined by the OD600 measurements (OD600 = 0.6). Further expression was conducted for 24 h at 22°C. The bacterial culture (1 mL) was harvested via centrifugation (2 min, 20 376 x g, 37°C) and washed three times with PBS. The pellets from 1-mL samples of the expression cell culture were resuspended in 100 μL of PBS. The hydrolysis of urea that is catalyzed by whole bacterial cells was performed in 96-well plates (Rotilabo, U-profile). The reaction progress curves were obtained by the addition of bacterial cells (1×10^9 CFU/mL final concentration) into mixtures (300 μL final volume) that contained 5 mM urea and various inhibitor concentrations that depended on their inhibitory strength. Alternatively, the reaction was initiated via the addition of a concentrated solution of urea after a 120-min preincubation of bacterial cells with the inhibitor. Samples (50 μL) of the reaction mixture were removed after the appropriate reaction time. The enzymatic reactions in the samples were terminated via the introduction of 100 μL of phenol-sodium nitroprusside solution, immediately followed by the addition of 100 μL of NaOH-hypochlorite solution. The absorption of indophenol blue was measured at 650 nm using a TECAN-Sunrise absorbance reader equipped with a gradient filter and Magellan software. The IC50 values were determined from the linear regression of the urease activity versus the logarithm of the inhibitor concentration. The reaction was studied in the absence and in the presence of the inhibitor. The influence of dimethylformamide (DMF), which was used as a solvent for several compounds, was also determined.

[2] = target: T2, urease in intact H. pylori J99 (Helicobacter pylori, UniProt P69997); assay: Urease inhibition in whole cells of H. pylori J99; type: cell-based
T2 construct: In the intact H. pylori J99 cells, the urease susceptibility profile was similar to that of E. coli (pGEM::ureOP); endogenous in cells

[3] = target: T3, purified recombinant urease from H. pylori (Helicobacter pylori, UniProt B5Z674); assay: Inhibition of purified recombinant H. pylori urease (phenol-hypochlorite, Lineweaver-Burk); type: biochemical; conditions: 50 mM phosphate buffer pH 7.5, 37°C, 0.1–2.5 mM urea, competitive reversible inhibition
T3 construct: plasmid pGEM::ureOP, which encodes the entire urease gene cluster, was used to produce recombinant H. pylori urease; made in house; host or cells: E. coli Rosetta2 (DE3) + pGEM::ureOP
Method: The kinetic parameters of urease were determined by measuring the initial rates of the reactions in 50 mM phosphate buffer (pH 7.5) at 37°C. Ammonia was routinely quantified by the phenol hypochlorite method as reported previously.
Inhibition studies were conducted by initiating the enzymatic reaction with the addition of the enzyme into assay mixtures (200 μL total volume) containing increasing concentrations of inhibitors and 0.1–2.5 mM urea. After 15 min of incubation at 37°C, the reaction was stopped by adding phenol-hypochlorite reagents and the absorbance of the formed indophenol blue complexes was measured at 650 nm. The Ki values were determined from Lineweaver-Burk plots after testing at least five inhibitor concentrations in a range that depended on their inhibitory strength. The concentration of inhibitor that caused the loss of 50% of the enzyme’s activity (IC50) was determined from the measurements that were performed at a urea concentration of 0.6 mM and calculated using the linear regression of the urease activity versus the logarithm of the inhibitor concentrations.
The values of Ki and IC50 for all analyzed compounds were calculated using the appropriate equations in GraphPad Prism 5. Errors were reported with two significant digits, and each measured parameter was given with the same number of decimal places as its error [32].

[4] = IC502h PBS, 2 h of preincubation with inhibitors in PBS
[5] = read-out: IC500, without preincubation of cells with inhibitory compounds, 30-min reactions, 5 mM urea
[6] = cells grown with urea, 2 h of preincubation with inhibitors in PBS under microaerobic conditions, read-out: IC502h PBS
[7] = cells grown with urea, 2 h of preincubation with inhibitors in growth medium under microaerobic conditions, read-out: IC502h medium
[8] = cells grown with urea, without preincubation, read-out: IC500
[9] = cells grown without urea, 2 h of preincubation with inhibitors in PBS under microaerobic conditions, read-out: IC502h PBS
[10] = cells grown without urea, without preincubation, read-out: IC500
[11] = IC500, without preincubation of cells with inhibitory compounds, 30-min reactions, 5 mM urea
[12] = read-out: IC502h PBS, 2 h of preincubation with inhibitors in PBS
[13] = without preincubation of cells with inhibitory compounds, 30-min reactions, 5 mM urea

T2 sequence (Q9ZMZ4 whole entry): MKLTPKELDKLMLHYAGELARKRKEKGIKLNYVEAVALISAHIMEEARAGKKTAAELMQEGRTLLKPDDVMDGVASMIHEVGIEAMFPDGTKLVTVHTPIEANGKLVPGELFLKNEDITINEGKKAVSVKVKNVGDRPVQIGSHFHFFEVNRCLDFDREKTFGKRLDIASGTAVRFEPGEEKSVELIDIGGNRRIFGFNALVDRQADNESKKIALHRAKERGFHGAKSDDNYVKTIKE
T2 sequence (P69997 whole entry): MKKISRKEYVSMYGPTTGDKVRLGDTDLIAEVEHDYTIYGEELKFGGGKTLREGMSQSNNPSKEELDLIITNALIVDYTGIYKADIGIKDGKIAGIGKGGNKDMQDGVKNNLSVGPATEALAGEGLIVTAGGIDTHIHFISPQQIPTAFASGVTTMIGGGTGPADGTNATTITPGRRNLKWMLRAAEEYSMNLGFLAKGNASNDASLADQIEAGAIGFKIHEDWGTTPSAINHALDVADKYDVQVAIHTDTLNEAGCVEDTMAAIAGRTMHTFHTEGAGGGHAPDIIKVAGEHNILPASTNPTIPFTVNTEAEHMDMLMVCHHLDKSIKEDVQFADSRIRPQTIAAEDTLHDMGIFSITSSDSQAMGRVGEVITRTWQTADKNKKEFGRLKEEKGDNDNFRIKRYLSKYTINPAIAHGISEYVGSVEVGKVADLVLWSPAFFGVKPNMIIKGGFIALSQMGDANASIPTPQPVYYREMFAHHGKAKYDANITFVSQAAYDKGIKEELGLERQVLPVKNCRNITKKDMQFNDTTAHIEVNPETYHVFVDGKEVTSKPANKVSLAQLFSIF
T3 sequence (B5Z674 whole entry, looked up): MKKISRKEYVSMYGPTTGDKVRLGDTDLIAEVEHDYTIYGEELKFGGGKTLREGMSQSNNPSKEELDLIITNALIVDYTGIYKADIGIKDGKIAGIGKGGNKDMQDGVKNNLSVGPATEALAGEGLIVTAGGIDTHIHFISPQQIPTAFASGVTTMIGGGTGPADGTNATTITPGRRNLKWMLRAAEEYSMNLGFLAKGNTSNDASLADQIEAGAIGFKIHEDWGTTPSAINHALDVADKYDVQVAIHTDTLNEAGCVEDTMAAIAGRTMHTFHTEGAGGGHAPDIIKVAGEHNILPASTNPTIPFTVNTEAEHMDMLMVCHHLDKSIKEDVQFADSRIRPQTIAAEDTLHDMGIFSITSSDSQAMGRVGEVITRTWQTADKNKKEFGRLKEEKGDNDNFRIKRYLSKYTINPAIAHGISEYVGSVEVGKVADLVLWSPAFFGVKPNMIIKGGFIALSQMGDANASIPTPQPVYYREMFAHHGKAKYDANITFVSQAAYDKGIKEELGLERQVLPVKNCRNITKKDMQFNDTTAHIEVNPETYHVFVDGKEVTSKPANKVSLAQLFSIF
T1 sequence (B5Z674 whole entry, looked up): as above

Structure (SMILES) | IC50 [1, 4] | IC50 [1, 5] | IC50 [2, 6] | IC50 [2, 7] | IC50 [2, 8] | IC50 [2, 9] | IC50 [2, 10] | Ki ([3]; Ki) | IC50 [1, 11] | IC50 [1, 12] | IC500 [1, 13] | IC50 ([1]; 2 h of preincubation with inhibitors in PBS, read-out: IC502h PBS) | IC50 ([1]; without preincubation of cells with inhibitory compounds, 30-min reactions, 5 mM urea, read-out: IC500) | IC50 ([2]; urea-grown cells, preincubation in PBS, read-out: IC502h PBS) | IC50 ([2]; urea-grown cells, without former preincubation, read-out: IC500) | Ki ([3]; listed as acetohydroxamic acid, read-out: Ki) | Ki ([3]; read-out: Ki)
CC(C)CNCP(=O)(O)CN [Compound 10] | 1870 ± 113 µM | > 2000 µM | 1130 ± 83 µM | 835 ± 34 µM | > 2000 µM | 980 ± 35 µM | 913 ± 63 µM | 440 ± 70 µM | – | – | – | – | – | – | – | – | –
CCCCCCNCP(=O)(O)CO [Compound 5] | – | – | – | – | – | – | – | 74.3 ± 4.7 µM | – | – | – | – | – | – | – | – | –
CCCCCNCP(=O)(O)CN [Compound 12] | 475 ± 73 µM | – | 853 ± 93 µM | 806 ± 72 µM | 813 ± 61 µM | 917 ± 105 µM | 872 ± 68 µM | 43.1 ± 3.6 µM | 1670 ± 232 µM | – | – | – | – | – | – | – | –
NCP(=O)(O)CNC1CCCCC1 [Compound 17] | – | > 2000 µM | > 2000 µM | > 2000 µM | > 2000 µM | > 2000 µM | > 2000 µM | – | – | > 2000 µM | – | – | – | – | – | – | –
O=P(O)(CNCc1ccccc1)CNCc1ccccc1 [Compound 23] | – | – | > 2000 µM | > 2000 µM | > 2000 µM | > 2000 µM | > 2000 µM | 50.7 ± 4.8 µM | – | – | complete lack of inhibitory effects | – | – | – | – | – | –
NCP(=O)(O)CNCc1ccccc1 [Compound 18] | – | > 2000 µM | > 2000 µM | > 2000 µM | > 2000 µM | > 2000 µM | > 2000 µM | 44.4 ± 2.5 µM | – | > 2000 µM | complete lack of inhibitory effects | – | – | – | – | – | –
CCCCCCCNCP(=O)(O)CN [Compound 14] | – | > 2000 µM | 672 ± 52 µM | 474 ± 34 µM | 942 ± 79 µM | 675 ± 33 µM | 743 ± 74 µM | 878 ± 25 µM | – | > 2000 µM | complete lack of inhibitory effects | – | – | – | – | – | –
NCP(=O)(O)CN1CCCCC1 [Compound 16] | – | > 2000 µM | > 2000 µM | > 2000 µM | > 2000 µM | > 2000 µM | > 2000 µM | – | – | > 2000 µM | – | – | – | – | – | – | –
CN(C)CP(=O)(O)CN [Compound 8] | – | – | – | – | – | – | – | 29.9 ± 2 µM | – | – | – | – | – | – | – | – | –
CN(Cc1ccccc1)CP(=O)(O)CN [Compound 19] | – | – | > 2000 µM | > 2000 µM | > 2000 µM | > 2000 µM | > 2000 µM | 36.4 ± 4.9 µM | – | – | complete lack of inhibitory effects | – | – | – | – | – | –
CCCCNCP(=O)(O)CN [Compound 11] | 284 ± 41 µM | – | 816 ± 39 µM | 470 ± 38 µM | 733 ± 9.2 µM | 933 ± 206 µM | 881 ± 35 µM | 27 ± 2.1 µM | 779 ± 99 µM | – | – | – | – | – | – | – | –
CCN(CC)CP(=O)(O)CN [Compound 20] | – | > 2000 µM | > 2000 µM | > 2000 µM | > 2000 µM | > 2000 µM | > 2000 µM | – | – | > 2000 µM | – | – | – | – | – | – | –
CC(=O)NO [Compound 24, acetohydroxamic acid, reference compound] | – | – | 1360 ± 194 µM | 192 ± 26 µM | 1670 ± 70 µM | 156 ± 32 µM | > 2000 µM | – | – | – | – | 96 ± 17 µM | 153 ± 31 µM | 1350 µM | 1660 µM | 23 µM | 23.2 ± 1.5 µM
CN(C)CP(=O)(O)CN(C)C [Compound 22] | – | > 2000 µM | > 2000 µM | > 2000 µM | > 2000 µM | > 2000 µM | > 2000 µM | – | – | > 2000 µM | – | – | – | – | – | – | –
